Measured values as given in ChEMBL document CHEMBL1157604 (J Med Chem, 2010).
Activity calls are given as the source filed them. The calls are words filed in the database; no cut-off is given here.

Assays:
[1] = molecular target: Sodium-dependent dopamine transporter (Homo sapiens, UniProt Q01959); experiment: Inhibition of [3H]dopamine uptake at human DAT expressed in HEK293 cells; format: cell-based
[2] = molecular target: Sodium-dependent noradrenaline transporter (Homo sapiens, UniProt P23975); experiment: Inhibition of [3H]norepinephrine uptake at human NET expressed in HEK293 cells; format: cell-based
[3] = molecular target: Sodium-dependent serotonin transporter (Homo sapiens, UniProt P31645); experiment: Inhibition of [3H]serotonin uptake at human SERT expressed in HEK293 cells; format: cell-based
[4] = molecular target: Neuronal acetylcholine receptor; alpha3/beta4 (Homo sapiens) (UniProt P30926+P32297); experiment: Intrinsic activity at alpha3beta4 nAChR receptor in human SH-SY5Y cells assessed as 86Rb+ efflux at 5 to 100 uM by liquid scintillation counting; format: cell-based
[5] = molecular target: Neuronal acetylcholine receptor; alpha4/beta2 (Homo sapiens) (UniProt P17787+P43681); experiment: Intrinsic activity at human alpha4beta2 nAChR receptor expressed in human SH-SY5Y cells assessed as 86Rb+ efflux at 5 to 100 uM by liquid scintillation counting; format: cell-based
[6] = molecular target: Neuronal acetylcholine receptor; alpha4/beta4 (Homo sapiens) (UniProt P30926+P43681); experiment: Intrinsic activity at human alpha4beta4 nAChR receptor expressed in human SH-SY5Y cells assessed as 86Rb+ efflux at 5 to 100 uM by liquid scintillation counting; format: cell-based
[7] = molecular target: Acetylcholine receptor; alpha1/beta1/delta/gamma (Homo sapiens) (UniProt P02708+P07510+P11230+Q07001); experiment: Intrinsic activity at alpha-1-beta-1-gamma-delta nAChR receptor expressed in human TE671/RD cells assessed as 86Rb+ efflux at 5 to 100 uM by liquid scintillation counting; format: cell-based
Mus musculus [8] = species: Mus musculus; experiment: Antinociceptive activity in ICR mouse D'Amour and Smith model of pain assessed as inhibition of nicotine-induced response by tail-flick test; format: functional
Mus musculus [9] = species: Mus musculus; experiment: Antinociceptive activity in ICR mouse assessed as inhibition of nicotine-induced response by hotplate test; format: functional
Mus musculus [10] = species: Mus musculus; experiment: Effect on behavioral activity in ICR mouse assessed as inhibition of nicotine-induced locomotory response by locomotor assay; format: functional
Mus musculus [11] = species: Mus musculus; experiment: Effect on body temperature in ICR mouse assessed as inhibition of nicotine-induced hypothermic response; format: functional

Sodium-dependent dopamine transporter, sequence (Q01959 whole entry): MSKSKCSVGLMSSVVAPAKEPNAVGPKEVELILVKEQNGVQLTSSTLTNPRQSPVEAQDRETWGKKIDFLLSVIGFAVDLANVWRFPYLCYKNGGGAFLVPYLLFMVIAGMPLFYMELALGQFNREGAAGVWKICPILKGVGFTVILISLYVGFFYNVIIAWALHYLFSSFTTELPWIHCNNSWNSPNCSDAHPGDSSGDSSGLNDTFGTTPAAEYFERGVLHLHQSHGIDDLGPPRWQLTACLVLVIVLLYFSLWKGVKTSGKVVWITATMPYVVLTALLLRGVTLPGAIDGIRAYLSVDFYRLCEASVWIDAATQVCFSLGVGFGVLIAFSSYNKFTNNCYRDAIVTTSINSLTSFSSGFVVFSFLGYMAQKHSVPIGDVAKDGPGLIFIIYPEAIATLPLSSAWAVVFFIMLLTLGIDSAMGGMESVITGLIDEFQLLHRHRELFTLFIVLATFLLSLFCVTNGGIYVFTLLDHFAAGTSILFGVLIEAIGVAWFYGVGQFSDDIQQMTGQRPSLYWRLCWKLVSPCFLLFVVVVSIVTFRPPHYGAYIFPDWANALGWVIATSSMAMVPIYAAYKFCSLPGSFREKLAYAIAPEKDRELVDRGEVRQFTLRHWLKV
Sodium-dependent noradrenaline transporter, sequence (P23975 whole entry): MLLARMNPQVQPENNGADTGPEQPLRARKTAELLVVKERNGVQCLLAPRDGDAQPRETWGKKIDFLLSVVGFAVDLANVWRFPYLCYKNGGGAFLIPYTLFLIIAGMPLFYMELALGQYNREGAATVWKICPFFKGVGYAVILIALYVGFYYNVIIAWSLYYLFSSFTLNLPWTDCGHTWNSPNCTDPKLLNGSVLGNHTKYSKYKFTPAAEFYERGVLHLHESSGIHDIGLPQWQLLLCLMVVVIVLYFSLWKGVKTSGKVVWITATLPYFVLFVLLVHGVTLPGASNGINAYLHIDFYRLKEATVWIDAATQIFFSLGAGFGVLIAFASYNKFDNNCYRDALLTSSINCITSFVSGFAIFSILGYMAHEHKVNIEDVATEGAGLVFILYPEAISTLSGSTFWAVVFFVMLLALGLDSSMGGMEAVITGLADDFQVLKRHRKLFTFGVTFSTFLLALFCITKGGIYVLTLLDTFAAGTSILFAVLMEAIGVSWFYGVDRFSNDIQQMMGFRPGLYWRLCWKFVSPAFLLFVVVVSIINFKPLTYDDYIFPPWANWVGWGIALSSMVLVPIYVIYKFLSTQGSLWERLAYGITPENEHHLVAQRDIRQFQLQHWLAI
Sodium-dependent serotonin transporter, sequence (P31645 whole entry): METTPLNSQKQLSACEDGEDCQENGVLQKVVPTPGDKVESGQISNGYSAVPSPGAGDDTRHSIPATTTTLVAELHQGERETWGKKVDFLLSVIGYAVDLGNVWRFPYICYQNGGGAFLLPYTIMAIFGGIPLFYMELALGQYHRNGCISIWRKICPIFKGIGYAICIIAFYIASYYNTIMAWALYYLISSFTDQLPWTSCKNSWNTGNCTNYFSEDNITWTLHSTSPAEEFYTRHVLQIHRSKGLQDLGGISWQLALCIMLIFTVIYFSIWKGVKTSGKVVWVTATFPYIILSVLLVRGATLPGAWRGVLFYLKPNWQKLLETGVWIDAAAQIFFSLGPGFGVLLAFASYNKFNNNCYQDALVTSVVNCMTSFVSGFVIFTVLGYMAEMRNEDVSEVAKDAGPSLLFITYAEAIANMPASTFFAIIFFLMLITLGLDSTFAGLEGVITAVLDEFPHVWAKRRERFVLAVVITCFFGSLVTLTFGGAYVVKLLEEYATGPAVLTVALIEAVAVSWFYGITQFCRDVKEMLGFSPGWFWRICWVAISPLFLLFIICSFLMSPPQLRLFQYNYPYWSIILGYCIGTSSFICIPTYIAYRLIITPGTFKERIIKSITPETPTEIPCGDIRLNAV

| Compound | IC50 [1] [nM] | IC50 [2] [nM] | IC50 [3] [nM] | Activity [4] | Activity [5] | Activity [6] | Activity [7] | AD50 (Mus musculus [8]) | AD50 (Mus musculus [9]) | AD50 (Mus musculus [10]) | AD50 (Mus musculus [11]) |
| --- | --- | --- | --- | --- | --- | --- | --- | --- | --- | --- | --- |
| CC(NC(C)(C)C)C(=O)c1ccc(Cl)c(Cl)c1 (stereo unspecified) | 463 | 1670 | 8800 | inactive | inactive | inactive | inactive | 0.28 mg/kg | inactive | inactive | inactive |
| CC(NC(C)(C)C)C(=O)c1cccc(Cl)c1 (stereo unspecified) [BUPROPION] | – | – | – | inactive | inactive | inactive | inactive | 1.2 mg/kg | 15 mg/kg | – | 9.2 mg/kg |
| CC(NC1CCCC1)C(=O)c1cccc(F)c1 (stereo unspecified) | 693 | 2850 | – | inactive | inactive | inactive | inactive | inactive | inactive | inactive | inactive |
| CC(NC(C)(C)C)C(=O)c1ccc(F)c(F)c1 (stereo unspecified) | 7980 | 6480 | – | inactive | inactive | inactive | inactive | 0.05 mg/kg | inactive | inactive | inactive |
| CC(C(=O)c1cccc(Cl)c1)N1CCCCC1 (stereo unspecified) | 852 | 2520 | – | inactive | inactive | inactive | inactive | 0.05 mg/kg | inactive | inactive | inactive |
| CCCC(NC(C)(C)C)C(=O)c1cccc(Cl)c1 (stereo unspecified) | 56 | 370 | – | inactive | inactive | inactive | inactive | 10 mg/kg | inactive | inactive | inactive |
| CC(NC(C)(C)C)C(=O)c1cccc(F)c1 (stereo unspecified) | 2320 | 6500 | – | inactive | inactive | inactive | inactive | inactive | inactive | inactive | inactive |
| CC(C(=O)c1cccc(Cl)c1)N(C)C (stereo unspecified) | 1750 | 1520 | – | inactive | inactive | inactive | inactive | 5.2 mg/kg | inactive | inactive | inactive |
| CC(C(=O)c1cccc([N+](=O)[O-])c1)N1CCCCC1 (stereo unspecified) | 10000 | – | – | inactive | inactive | inactive | inactive | inactive | inactive | inactive | inactive |
| Cc1ccc(C(=O)C(C)NC(C)(C)C)cc1 (stereo unspecified) | 1950 | – | – | inactive | inactive | inactive | inactive | 0.09 mg/kg | 7.75 mg/kg | 11.8 mg/kg | 8.8 mg/kg |
| CCC(NC(C)(C)C)C(=O)c1cccc(Cl)c1 (stereo unspecified) | 209 | – | – | inactive | inactive | inactive | inactive | 0.5 mg/kg | inactive | 11.7 mg/kg | inactive |
| CC(NC(C)(C)C)C(=O)c1cccc([N+](=O)[O-])c1 (stereo unspecified) | – | – | – | inactive | inactive | inactive | inactive | inactive | inactive | inactive | inactive |
| CC(NC(C)(C)C)C(=O)c1cccs1 (stereo unspecified) | – | – | – | inactive | inactive | inactive | inactive | 0.077 mg/kg | inactive | inactive | inactive |
| COc1cccc(C(=O)C(C)NC(C)(C)C)c1 (stereo unspecified) | 3620 | – | – | inactive | inactive | inactive | inactive | 1.6 mg/kg | inactive | inactive | inactive |
| CC(NC1CCCC1)C(=O)c1cccc(Br)c1 (stereo unspecified) | 845 | 2530 | – | inactive | inactive | inactive | inactive | inactive | inactive | inactive | inactive |
| Cc1cccc(C(=O)C(C)NC2CCCC2)c1 (stereo unspecified) | 842 | 8700 | – | inactive | inactive | inactive | inactive | inactive | inactive | inactive | inactive |
| Cc1ccc(C(=O)C(C)NC(C)(C)C)cc1Cl (stereo unspecified) | 410 | 2040 | – | inactive | inactive | inactive | inactive | 0.2 mg/kg | 7.2 mg/kg | 11 mg/kg | 10 mg/kg |
| CC(CNC(C)(C)C)C(=O)c1cccc(Cl)c1 (stereo unspecified) | – | – | – | inactive | inactive | inactive | inactive | 10.5 mg/kg | inactive | inactive | 16 mg/kg |
| CCCC(NC(C)(C)C)C(=O)c1ccc(Cl)c(Cl)c1 (stereo unspecified) | 31 | – | 2300 | inactive | inactive | inactive | inactive | 0.13 mg/kg | 15 mg/kg | inactive | 17.5 mg/kg |
| CC(NC1CCCC1)C(=O)c1cccc([N+](=O)[O-])c1 (stereo unspecified) | – | – | – | inactive | inactive | inactive | inactive | inactive | inactive | inactive | inactive |
| CC(NC(C)(C)C)C(=O)c1cccc(Br)c1 (stereo unspecified) | 511 | 5600 | – | inactive | inactive | inactive | inactive | 0.12 mg/kg | 14.9 mg/kg | 27.1 mg/kg | 11.5 mg/kg |
| CC(NC1CCCC1)C(=O)c1cccc(Cl)c1 (stereo unspecified) | – | – | – | inactive | inactive | inactive | inactive | 0.014 mg/kg | inactive | inactive | inactive |
| CC(C(=O)c1cccc(Cl)c1)N(C)C(C)(C)C (stereo unspecified) | 6000 | 1570 | – | inactive | inactive | inactive | inactive | 0.46 mg/kg | 8.7 mg/kg | inactive | inactive |
| Cc1cccc(C(=O)C(C)NC(C)(C)C)c1 (stereo unspecified) | – | 6200 | – | inactive | inactive | inactive | inactive | 0.05 mg/kg | 6.8 mg/kg | 4.3 mg/kg | 7.8 mg/kg |
| CC(NC(C)(C)C)C(=O)c1cc(Cl)cc(Cl)c1 (stereo unspecified) | – | 14000 | – | inactive | inactive | inactive | inactive | 0.028 mg/kg | 4.3 mg/kg | inactive | inactive |
| Cc1cc(C(=O)C(C)NC(C)(C)C)ccc1Br (stereo unspecified) | – | 7250 | – | inactive | inactive | inactive | inactive | 0.015 mg/kg | inactive | inactive | inactive |
